Laboratory results published in PubChem BioAssay AID1259408 (Genetic Toxicology Data Bank (GENE-TOX), 2018).
Active and inactive are the calls of the source. How the calls were made is not given here.

System: GENE-TOX genotoxicity assays, various organisms and cells
Assay: GENE-TOX mutagenicity studies
Settings: for call: Assay Type: In vivo carcinogenicity studies
[1] = Species/Cell Type: Hordeum vulgare (barley), Assay Type: Chromosome aberrations, Assay Code: HOC+D, Dose Response: With dose response, Evaluation Type: Evaluation A (Pre-1980)
[2] = Species/Cell Type: Bacillus subtilis (H17 vs M45), Assay Type: Rec-assay, spot test, DNA effects (bacterial DNA repair), Assay Code: REWT, Evaluation Type: Evaluation A (Pre-1980)
[3] = Species/Cell Type: Salmonella typhimurium (one or more of the five standard strains: TA98, TA100, TA1535, TA1537, and TA1538), Assay Type: Histidine reverse gene mutation, Ames assay, Assay Code: SAL+, Evaluation Type: Evaluation A (Pre-1980)
[4] = Species/Cell Type: Nonhuman, Assay Code: CCG+, Evaluation Type: Evaluation A (Pre-1980)
[5] = Species/Cell Type: Saccharomyces cerevisiae, Assay Type: Reverse gene mutation, Assay Code: YERT, Evaluation Type: Evaluation A (Pre-1980)
[6] = Species/Cell Type: Human, Assay Type: Sister-chromatid exchange (SCE) in vitro, Assay Code: SC1+D, Dose Response: With dose response, Evaluation Type: Evaluation B (Post-1980)
[7] = Species/Cell Type: Salmonella typhimurium (one or more of the five standard strains: TA98, TA100, TA1535, TA1537, and TA1538), Assay Type: Histidine reverse gene mutation, Ames assay, Assay Code: SAL+*, Activation: With metabolic activation, Evaluation Type: Evaluation A (Pre-1980)
[8] = Species/Cell Type: Bacillus subtilis (H17 vs M45), Assay Type: Rec-assay, spot test, DNA effects (bacterial DNA repair), Assay Code: REW+, Evaluation Type: Evaluation A (Pre-1980)
[9] = Species/Cell Type: Drosophila melanogaster, Assay Type: Sex-linked recessive lethal gene mutation, Assay Code: SRLT, Evaluation Type: Evaluation A (Pre-1980)
[10] = Species/Cell Type: Drosophila melanogaster, Assay Type: Sex-linked recessive lethal gene mutation, Assay Code: SRL-, Evaluation Type: Evaluation A (Pre-1980)
[11] = Species/Cell Type: Escherichia coli WP2 UVRA, Assay Type: Tryptophan reverse gene mutation, Assay Code: WPU-*, Activation: With metabolic activation, Evaluation Type: Evaluation A (Pre-1980)
[12] = Species/Cell Type: Escherichia coli polA (W3119 vs P3478), Assay Type: Rec-assay, DNA effects (bacterial DNA repair), Assay Code: RE1T, Evaluation Type: Evaluation A (Pre-1980)
[13] = Species/Cell Type: Human diploid fibroblasts, Assay Type: Unscheduled DNA synthesis (UDS) in vitro, DNA effects, Assay Code: UDH-, Evaluation Type: Evaluation A (Pre-1980)
[14] = Species/Cell Type: Saccharomyces cerevisiae, Assay Type: Mitotic recombination or gene conversion, Assay Code: YEH-, Evaluation Type: Evaluation A (Pre-1980)
[15] = Species/Cell Type: Salmonella typhimurium (one or more of the five standard strains: TA98, TA100, TA1535, TA1537, and TA1538), Assay Type: Histidine reverse gene mutation, Ames assay, Assay Code: SALT, Evaluation Type: Evaluation A (Pre-1980)
[16] = Species/Cell Type: Nonhuman, Assay Code: CCGT, Evaluation Type: Evaluation A (Pre-1980)

## CS(=O)(=O)OC[C@H](O)[C@@H](O)COS(C)(=O)=O
Species/Cell Type: Allium cepa, Assay Type: Chromosome aberrations, Assay Code: ALC+D, Dose Response: With dose response, Evaluation Type: Evaluation A (Pre-1980)
  mutagenic call: active; positive
Species/Cell Type: Arabidopsis species, Assay Type: Gene mutation, Assay Code: ARM+, Evaluation Type: Evaluation A (Pre-1980)
  mutagenic call: active; positive
[1]
  mutagenic call: active; positive
Species/Cell Type: Vicia faba, Assay Type: Chromosome aberrations, Assay Code: VIC+, Evaluation Type: Evaluation A (Pre-1980)
  mutagenic call: active; positive

## O=C1OC2(c3ccc(O)cc3Oc3cc(O)ccc32)c2ccccc21
[2]
  mutagenic call: no conclusion

## O=S1(=O)OCCCO1
[3]
  mutagenic call: active; positive
Species/Cell Type: Salmonella typhimurium, Assay Type: Forward and reverse gene mutation, host-mediated assay, Assay Code: HMA+, Evaluation Type: Evaluation A (Pre-1980)
  mutagenic call: active; positive

## Cc1c2ccccc2c2ccc3cccc4ccc1c2c43
Species/Cell Type: Chinese hamster lung (V79) cells, Assay Type: Forward gene mutation at the HPRT or ouabain locus, Assay Code: V79+*, Activation: With metabolic activation, Evaluation Type: Evaluation A (Pre-1980)
  mutagenic call: active; positive
[4]
  call: active; positive

## NC(=O)c1ccccc1C(N)=O
Species/Cell Type: Nonhuman, Assay Code: CCG-, Evaluation Type: Evaluation A (Pre-1980)
  call: inactive; negative

## CCCOc1ccc(CC(=O)NN)cc1CN(CC)CC
[5]
  mutagenic call: no conclusion

## CCC1(c2ccc(O)cc2)OC1(CC)c1ccc(O)cc1 (centres undefined)
[6]
  mutagenic call: active; positive

## Cc1c2ccccc2cc2c3c(ccc12)C=CC(O)C3O (centres undefined)
[7]
  mutagenic call: active; positive

## O=C(/C=C/c1ccc([N+](=O)[O-])o1)NC1CCCCC1
Species/Cell Type: Neurospora crassa, Assay Type: Forward gene mutation, Assay Code: NEF-, Evaluation Type: Evaluation A (Pre-1980)
  mutagenic call: inactive; negative

## O=NN1CCCC1=O
[8]
  mutagenic call: active; positive

## CS(=O)(=O)OC/C=C\COS(C)(=O)=O
[9]
  mutagenic call: no conclusion

## CC1CS(=O)(=O)CCN1/N=C/c1ccc([N+](=O)[O-])o1 (centres undefined)
Species/Cell Type: Mammalian polychromatic erythrocytes, Assay Type: Micronucleus test, chromosome aberrations, Assay Code: MNT+, Evaluation Type: Evaluation B (Post-1980)
  mutagenic call: active; positive

## O=c1ccc2ccc3occc3c2o1
Species/Cell Type: Mammalian cell culture, nonhuman, Assay Type: Micronucleus test in vitro, chromosome aberrations, Assay Code: MN&+, Evaluation Type: Evaluation A (Pre-1980)
  mutagenic call: active; positive
[5]
  mutagenic call: no conclusion

## CCCCN(CCCO)N=O
[3]
  mutagenic call: active; positive

## c1cc2ccc3cc4cccc5ccc6cc(c1)c2c3c6c54
[7]
  mutagenic call: active; positive

## CCOP(=S)(OCC)SCSCC
[2]
  mutagenic call: no conclusion
[10]
  mutagenic call: inactive; negative
[11]
  mutagenic call: inactive; negative
[12]
  mutagenic call: no conclusion
[1]
  mutagenic call: active; positive
[13]
  mutagenic call: inactive; negative
[6]
  mutagenic call: active; positive
Species/Cell Type: Mammalian polychromatic erythrocytes, Assay Type: Micronucleus test, chromosome aberrations, Assay Code: MNT+U, Dose Response: Unconfirmed positive response, Evaluation Type: Evaluation B (Post-1980)
  mutagenic call: active; positive
[14]
  mutagenic call: inactive; negative
[15]
  mutagenic call: no conclusion

## Cc1c2c(cc3ccccc13)-c1ccccc1C(O)C2O (centres undefined)
Species/Cell Type: Chinese hamster lung (V79) cells, Assay Type: Forward gene mutation at the HPRT or ouabain locus, Assay Code: V79-*, Activation: With metabolic activation, Evaluation Type: Evaluation A (Pre-1980)
  mutagenic call: inactive; negative
[16]
  call: no conclusion
Species/Cell Type: Nonhuman, Assay Type: Sister-chromatid exchange (SCE) in vitro, Assay Code: SC2T, Evaluation Type: Evaluation A (Pre-1980)
  mutagenic call: no conclusion
[15]
  mutagenic call: no conclusion

## ClC(Cl)(Cl)C1CO1 (centres undefined)
[9]
  mutagenic call: no conclusion
Species/Cell Type: Human lymphocytes, Assay Type: Sister-chromatid exchange (SCE) in vitro, Assay Code: SCL+, Evaluation Type: Evaluation B (Post-1980)
  mutagenic call: active; positive
Species/Cell Type: Human, Assay Type: Sister-chromatid exchange (SCE) in vitro, Assay Code: SC1+, Evaluation Type: Evaluation B (Post-1980)
  mutagenic call: active; positive
Species/Cell Type: Saccharomyces cerevisiae, Assay Type: Mitotic recombination or gene conversion, Assay Code: YEH+/-*, Activation: With metabolic activation, Evaluation Type: Evaluation A (Pre-1980)
  mutagenic call: inactive; positive without activation, negative with activation

## C[N+](C)(C)CCO
[12]
  mutagenic call: no conclusion
Species/Cell Type: Nonhuman, Assay Type: Sister-chromatid exchange (SCE) in vitro, Assay Code: SC2+, Evaluation Type: Evaluation B (Post-1980)
  mutagenic call: active; positive

## [Cl][Tl]
Species/Cell Type: Syrian hamster embryo (SA7/SHE) cells, Assay Type: Cell transformation, viral enhanced, Assay Code: CT7+, Evaluation Type: Evaluation A (Pre-1980)
  mutagenic call: active; positive

## COP(=O)(OC)O/C(C)=C/C(=O)OC(C)c1ccccc1 (centres undefined)
[2]
  mutagenic call: no conclusion
[11]
  mutagenic call: inactive; negative
[12]
  mutagenic call: no conclusion
[13]
  mutagenic call: inactive; negative
Species/Cell Type: Saccharomyces cerevisiae, Assay Type: Mitotic recombination or gene conversion, Assay Code: YEH+, Evaluation Type: Evaluation A (Pre-1980)
  mutagenic call: active; positive
Species/Cell Type: Salmonella typhimurium (one or more of the five standard strains: TA98, TA100, TA1535, TA1537, and TA1538), Assay Type: Histidine reverse gene mutation, Ames assay, Assay Code: SAL-, Evaluation Type: Evaluation A (Pre-1980)
  mutagenic call: inactive; negative

## O=[N+]([O-])c1ccc2c(ccc[n+]2[O-])c1
[13]
  mutagenic call: inactive; negative

## C/C=C1/C[C@@H](C)[C@@](C)(O)C(=O)OC[C@H]2CCN3CC[C@@H](OC1=O)[C@@H]23
[9]
  mutagenic call: no conclusion

## CC(C)OC(N)=O
Species/Cell Type: Nonhuman, Assay Type: Sister-chromatid exchange (SCE) in vivo, Assay Code: SC3+D, Dose Response: With dose response, Evaluation Type: Evaluation B (Post-1980)
  mutagenic call: active; positive

## COc1cc2c(c3oc(=O)c4c(c13)CCOC4=O)C1CC(O)OC1O2 (centres undefined)
[15]
  mutagenic call: no conclusion

## COC(=O)Nc1cccc(OC(=O)Nc2cccc(C)c2)c1
Species/Cell Type: Aspergillus nidulans, Assay Type: Aneuploidy, chromosome aberrations, Assay Code: ASN+, Evaluation Type: Evaluation A (Pre-1980)
  mutagenic call: active; positive
Species/Cell Type: Saccharomyces cerevisiae, Assay Type: Mitotic recombination or gene conversion, Assay Code: YEC-, Evaluation Type: Evaluation A (Pre-1980)
  mutagenic call: inactive; negative

## O[C@@H]1[C@@H](O)c2c(cc3ccc4cccc5ccc2c3c45)C2O[C@@H]21 (some centres undefined)
[3]
  mutagenic call: active; positive

## ClC(Cl)(Cl)c1ccccc1
[8]
  mutagenic call: active; positive
[4]
  call: active; positive

## CN(CCCC(=O)c1cccnc1)N=O
Species/Cell Type: Rat primary hepatocytes, Assay Type: Unscheduled DNA synthesis (UDS) in vitro, DNA effects, Assay Code: UDP+D, Dose Response: With dose response, Evaluation Type: Evaluation A (Pre-1980)
  mutagenic call: active; positive

## CNC(=O)O/N=C(\C)SC
[2]
  mutagenic call: no conclusion
[10]
  mutagenic call: inactive; negative
[11]
  mutagenic call: inactive; negative
[12]
  mutagenic call: no conclusion
[13]
  mutagenic call: inactive; negative
[14]
  mutagenic call: inactive; negative
[15]
  mutagenic call: no conclusion

## O[C@H]1c2ccccc2-c2cc3ccccc3cc2[C@@H]1O
Species/Cell Type: Chinese hamster lung (V79) cells, Assay Type: Forward gene mutation at the HPRT or ouabain locus, Assay Code: V79-, Evaluation Type: Evaluation A (Pre-1980)
  mutagenic call: inactive; negative
Species/Cell Type: Mouse prostate cells, Assay Type: Cell transformation, Assay Code: CTM-, Evaluation Type: Evaluation A (Pre-1980)
  mutagenic call: inactive; negative
[16]
  call: no conclusion
Species/Cell Type: Nonhuman, Assay Type: Sister-chromatid exchange (SCE) in vitro, Assay Code: SC2+D, Dose Response: With dose response, Evaluation Type: Evaluation B (Post-1980)
  mutagenic call: active; positive
[15]
  mutagenic call: no conclusion
Species/Cell Type: Syrian hamster embryo (SHE) cells, Assay Type: Cell transformation, clonal assay, Assay Code: CTC+, Evaluation Type: Evaluation A (Pre-1980)
  mutagenic call: active; positive

## NC(=O)C#CC(N)=O
Species/Cell Type: Bacillus subtilis (H17 vs M45), Assay Type: Rec-assay, spot test, DNA effects (bacterial DNA repair), Assay Code: REW-, Evaluation Type: Evaluation A (Pre-1980)
  mutagenic call: inactive; negative

## BrBr
Species/Cell Type: Allium cepa, Assay Type: Chromosome aberrations, Assay Code: ALC+, Evaluation Type: Evaluation A (Pre-1980)
  mutagenic call: active; positive

## N#Cc1ccc(N)cc1
Species/Cell Type: Mouse, Sex: Male, Assay Type: Sperm morphology, Assay Code: SPI-, Evaluation Type: Evaluation A (Pre-1980)
  mutagenic call: inactive; negative
